Results as given in ChEMBL document CHEMBL4622979, “Non-rigid Diarylmethyl Analogs of Baloxavir as Cap-Dependent Endonuclease Inhibitors of Influenza Viruses” (J Med Chem, 2020).

What was measured:
[1] = Tmax in CD1 mouse spleen assessed as (12aR)-12-(Diphenylmethyl)-7-hydroxy-3,4,12,12a-tetrahydro-1H-[1,4]oxazino[3,4-c]pyrido[2,1-f ][1,2,4]triazine-6,8-dione level at 15 mg/kg, po administered as single dose measured up to 24 hrs by LC-MS/MS analysis; assay type: ADME, organism-based; conditions: in vivo
[2] = Half life in CD1 mouse blood assessed as (12aR)-12-(Diphenylmethyl)-7-hydroxy-3,4,12,12a-tetrahydro-1H-[1,4]oxazino[3,4-c]pyrido[2,1-f ][1,2,4]triazine-6,8-dione level at 15 mg/kg, po administered as single dose measured up to 24 hrs by LC-MS/MS analysis; assay type: ADME, organism-based; conditions: in vivo
[3] = MRTlast in CD1 mouse spleen assessed as (12aR)-12-(Diphenylmethyl)-7-hydroxy-3,4,12,12a-tetrahydro-1H-[1,4]oxazino[3,4-c]pyrido[2,1-f ][1,2,4]triazine-6,8-dione level at 15 mg/kg, po administered as single dose measured up to 24 hrs by LC-MS/MS analysis; assay type: ADME, organism-based; conditions: in vivo
[4] = Ratio of AUClast in CD1 mouse brain to plasma assessed as (12aR)-12-(Diphenylmethyl)-7-hydroxy-3,4,12,12a-tetrahydro-1H-[1,4]oxazino[3,4-c]pyrido[2,1-f ][1,2,4]triazine-6,8-dione level at 15 mg/kg, po administered as single dose measured up to 24 hrs by LC-MS/MS analysis; assay type: ADME, organism-based
[5] = AUCinfinity in CD1 mouse spleen assessed as (12aR)-12-(Diphenylmethyl)-7-hydroxy-3,4,12,12a-tetrahydro-1H-[1,4]oxazino[3,4-c]pyrido[2,1-f ][1,2,4]triazine-6,8-dione level at 15 mg/kg, po administered as single dose measured up to 24 hrs by LC-MS/MS analysis; assay type: ADME, organism-based; set-up: dose 15 mg/kg, route oral, time infinity; conditions: in vivo
[6] = Tmax in CD1 mouse liver assessed as (12aR)-12-(Diphenylmethyl)-7-hydroxy-3,4,12,12a-tetrahydro-1H-[1,4]oxazino[3,4-c]pyrido[2,1-f ][1,2,4]triazine-6,8-dione level at 15 mg/kg, po administered as single dose measured up to 24 hrs by LC-MS/MS analysis; assay type: ADME, organism-based; conditions: in vivo
[7] = Cmax in CD1 mouse heart assessed as (12aR)-12-(Diphenylmethyl)-7-hydroxy-3,4,12,12a-tetrahydro-1H-[1,4]oxazino[3,4-c]pyrido[2,1-f ][1,2,4]triazine-6,8-dione level at 15 mg/kg, po administered as single dose measured up to 24 hrs by LC-MS/MS analysis; assay type: ADME, organism-based; set-up: dose 15 mg/kg, route oral; conditions: in vivo
[8] = Cmax in CD1 mouse trachea assessed as (12aR)-12-(Diphenylmethyl)-7-hydroxy-3,4,12,12a-tetrahydro-1H-[1,4]oxazino[3,4-c]pyrido[2,1-f ][1,2,4]triazine-6,8-dione level at 15 mg/kg, po administered as single dose measured up to 24 hrs by LC-MS/MS analysis; assay type: ADME, organism-based; set-up: dose 15 mg/kg, route oral; conditions: in vivo
[9] = Cmax in CD1 mouse plasma assessed as (12aR)-12-(Diphenylmethyl)-7-hydroxy-3,4,12,12a-tetrahydro-1H-[1,4]oxazino[3,4-c]pyrido[2,1-f ][1,2,4]triazine-6,8-dione level at 15 mg/kg, po administered as single dose by LC-MS/MS analysis; assay type: ADME, organism-based; set-up: dose 15 mg/kg, route oral; conditions: in vivo
[10] = MRTlast in CD1 mouse muscle assessed as (12aR)-12-(Diphenylmethyl)-7-hydroxy-3,4,12,12a-tetrahydro-1H-[1,4]oxazino[3,4-c]pyrido[2,1-f ][1,2,4]triazine-6,8-dione level at 15 mg/kg, po administered as single dose measured up to 24 hrs by LC-MS/MS analysis; assay type: ADME, organism-based, Muscle tissue; conditions: in vivo
[11] = AUCinfinity in CD1 mouse muscle assessed as (12aR)-12-(Diphenylmethyl)-7-hydroxy-3,4,12,12a-tetrahydro-1H-[1,4]oxazino[3,4-c]pyrido[2,1-f ][1,2,4]triazine-6,8-dione level at 15 mg/kg, po administered as single dose measured up to 24 hrs by LC-MS/MS analysis; assay type: ADME, organism-based, Muscle tissue; set-up: dose 15 mg/kg, route oral, time infinity; conditions: in vivo
[12] = AUClast in CD1 mouse small intestine assessed as (12aR)-12-(Diphenylmethyl)-7-hydroxy-3,4,12,12a-tetrahydro-1H-[1,4]oxazino[3,4-c]pyrido[2,1-f ][1,2,4]triazine-6,8-dione level at 15 mg/kg, po administered as single dose measured up to 24 hrs by LC-MS/MS analysis; assay type: ADME, organism-based; conditions: in vivo
[13] = AUCinfinity in CD1 mouse heart assessed as (12aR)-12-(Diphenylmethyl)-7-hydroxy-3,4,12,12a-tetrahydro-1H-[1,4]oxazino[3,4-c]pyrido[2,1-f ][1,2,4]triazine-6,8-dione level at 15 mg/kg, po administered as single dose measured up to 24 hrs by LC-MS/MS analysis; assay type: ADME, organism-based; set-up: dose 15 mg/kg, time infinity, route oral; conditions: in vivo
[14] = Elimination rate constant in CD1 mouse blood assessed as (12aR)-12-(Diphenylmethyl)-7-hydroxy-3,4,12,12a-tetrahydro-1H-[1,4]oxazino[3,4-c]pyrido[2,1-f ][1,2,4]triazine-6,8-dione level at 15 mg/kg, po administered as single dose measured up to 24 hrs by LC-MS/MS analysis; assay type: ADME, organism-based; conditions: in vivo
[15] = Elimination rate constant in CD1 mouse trachea assessed as (12aR)-12-(Diphenylmethyl)-7-hydroxy-3,4,12,12a-tetrahydro-1H-[1,4]oxazino[3,4-c]pyrido[2,1-f ][1,2,4]triazine-6,8-dione level at 15 mg/kg, po administered as single dose measured up to 24 hrs by LC-MS/MS analysis; assay type: ADME, organism-based; conditions: in vivo
[16] = Cmax in CD1 mouse liver assessed as baloxavir acid level at 15 mg/kg, po administered as single dose measured up to 24 hrs by LC-MS/MS analysis; assay type: ADME, organism-based; set-up: dose 15 mg/kg, route oral; conditions: in vivo
[17] = Cmax in CD1 mouse muscle assessed as baloxavir acid level at 15 mg/kg, po administered as single dose measured up to 24 hrs by LC-MS/MS analysis; assay type: ADME, organism-based, Muscle tissue; set-up: dose 15 mg/kg, route oral; conditions: in vivo
[18] = Cmax in CD1 mouse kidney assessed as baloxavir acid level at 15 mg/kg, po administered as single dose measured up to 24 hrs by LC-MS/MS analysis; assay type: ADME, organism-based; set-up: dose 15 mg/kg, route oral; conditions: in vivo
[19] = MRTlast in CD1 mouse brain assessed as baloxavir acid level at 15 mg/kg, po administered as single dose measured up to 24 hrs by LC-MS/MS analysis; assay type: ADME, organism-based; conditions: in vivo
[20] = MRTlast in CD1 mouse lung assessed as baloxavir acid level at 15 mg/kg, po administered as single dose measured up to 24 hrs by LC-MS/MS analysis; assay type: ADME, organism-based; conditions: in vivo
[21] = Half life in CD1 mouse lung assessed as baloxavir acid level at 15 mg/kg, po administered as single dose measured up to 24 hrs by LC-MS/MS analysis; assay type: ADME, organism-based; conditions: in vivo
[22] = Half life in CD1 mouse kidney assessed as baloxavir acid level at 15 mg/kg, po administered as single dose measured up to 24 hrs by LC-MS/MS analysis; assay type: ADME, organism-based; conditions: in vivo
[23] = Tmax in CD1 mouse plasma assessed as baloxavir acid level at 15 mg/kg, po administered as single dose measured up to 24 hrs by LC-MS/MS analysis; assay type: ADME, organism-based; conditions: in vivo

COC(=O)OCOc1c2n(ccc1=O)N(C(c1ccccc1)c1ccccc1)[C@@H]1COCCN1C2=O
Tmax [1]: 0.5 h
t1/2 [2]: 1.74 h
MRTlast [3]: 1.89 h
Ratio AUC [4]: 0.19
AUC [5]: 4713 ng·h/g
Tmax [6]: 0.5 h
Cmax [7]: 2537 ng/g
Cmax [8]: 3431 ng/g
Cmax [9]: 875 ng/mL
MRTlast [10]: 1.86 h
AUC [11]: 7693 ng·h/g
AUClast [12]: 43656 ng·h/g
AUC [13]: 11444 ng·h/g
Kel [14]: 0.4 h⁻¹
Kel [15]: 0.14 h⁻¹

COC(=O)OCOc1c2n(ccc1=O)N([C@@H]1c3ccccc3SCc3c1ccc(F)c3F)[C@@H]1COCCN1C2=O [BALOXAVIR MARBOXIL]
Cmax [16]: 15342 ng/g
Cmax [17]: 916 ng/g
Cmax [18]: 2998 ng/g
MRTlast [19]: 8.42 h
MRTlast [20]: 4.84 h
t1/2 [21]: 3.4 h
t1/2 [22]: 3.26 h
Tmax [23]: 2 h
